Test results: patent publication US12030879B2, “Sulfonyl acetamides as NLRP3 inhibitors” (Inflazome Limited, priority 2018, dated 2024)
Counter-ions that a name gives are not always drawn.

The molecules below were run against T1, NLRP3 (Homo sapiens, UniProt Q96P20) (assay: THP-1 cells pyroptosis assay). Conditions: LPS 1 μg/ml, compound 3 hrs, nigericin 5 μM 1 hr, resazurin readout.
T1 construct: Seed THP-1 cells (25,000 cells/well) containing 1.0 μg/ml LPS in 40 μl of RPMI medium; host or cells: THP-1 cells
Format: cell-based
Experimental: THP-1 cells (ATCC #TIB-202) were grown in RPMI containing L-glutamine (Gibco #11835) supplemented with 1 mM sodium pyruvate (Sigma #S8636) and penicillin (100 units/ml)/streptomycin (0.1 mg/ml) (Sigma #P4333) in 10% Fetal Bovine Serum (FBS) (Sigma #F0804). The cells were routinely passaged and grown to confluency (10^6 cells/ml). On the day of the experiment, THP-1 cells were harvested and resuspended into RPMI medium (without FBS). The cells were then counted and viability (>90%) checked by Trypan blue (Sigma #T8154). Appropriate dilutions were made to give a concentration of 625,000 cells/ml. To this diluted cell solution was added LPS (Sigma #L4524) to give a 1 μg/ml Final Assay Concentration (FAC). 40 μl of the final preparation was aliquoted into each well of a 96-well plate. The plate thus prepared was used for compound screening.
The following method step-by-step assay was followed for compound screening. • 1. Seed THP-1 cells (25,000 cells/well) containing 1.0 μg/ml LPS in 40 μl of RPMI medium (without FBS) in 96-well, black walled, clear bottom cell culture plates coated with poly-D-lysine (VWR #734-0317) • 2. Add 5 μl compound (8 points half-log dilution, with 10 μM top dose) or vehicle (DMSO 0.1% FAC) to the appropriate wells • 3. Incubate for 3 hrs at 37° C., 5% CO2 • 4. Add 5 μl nigericin (Sigma #N7143) (FAC 5 μM) to all wells • 5. Incubate for 1 hr at 37° C., 5% CO2 • 6. At the end of the incubation period, spin plates at 300×g for 3 mins and remove supernatant • 7. Then add 50 μl of resazurin (Sigma #R7017)(FAC 100 μM resazurin in RPMI medium without FBS) and incubate plates for a further 1-2 hrs at 37° C. and 5% CO2 • 8. Plates were read in an Envision reader at Ex 560 nm and Em 590 nm • 9. IC50 data is fitted to a non-linear regression equation (log inhibitor vs response-variable slope 4-parameters) 96-well Plate Map

T1 sequence (Q96P20 whole entry): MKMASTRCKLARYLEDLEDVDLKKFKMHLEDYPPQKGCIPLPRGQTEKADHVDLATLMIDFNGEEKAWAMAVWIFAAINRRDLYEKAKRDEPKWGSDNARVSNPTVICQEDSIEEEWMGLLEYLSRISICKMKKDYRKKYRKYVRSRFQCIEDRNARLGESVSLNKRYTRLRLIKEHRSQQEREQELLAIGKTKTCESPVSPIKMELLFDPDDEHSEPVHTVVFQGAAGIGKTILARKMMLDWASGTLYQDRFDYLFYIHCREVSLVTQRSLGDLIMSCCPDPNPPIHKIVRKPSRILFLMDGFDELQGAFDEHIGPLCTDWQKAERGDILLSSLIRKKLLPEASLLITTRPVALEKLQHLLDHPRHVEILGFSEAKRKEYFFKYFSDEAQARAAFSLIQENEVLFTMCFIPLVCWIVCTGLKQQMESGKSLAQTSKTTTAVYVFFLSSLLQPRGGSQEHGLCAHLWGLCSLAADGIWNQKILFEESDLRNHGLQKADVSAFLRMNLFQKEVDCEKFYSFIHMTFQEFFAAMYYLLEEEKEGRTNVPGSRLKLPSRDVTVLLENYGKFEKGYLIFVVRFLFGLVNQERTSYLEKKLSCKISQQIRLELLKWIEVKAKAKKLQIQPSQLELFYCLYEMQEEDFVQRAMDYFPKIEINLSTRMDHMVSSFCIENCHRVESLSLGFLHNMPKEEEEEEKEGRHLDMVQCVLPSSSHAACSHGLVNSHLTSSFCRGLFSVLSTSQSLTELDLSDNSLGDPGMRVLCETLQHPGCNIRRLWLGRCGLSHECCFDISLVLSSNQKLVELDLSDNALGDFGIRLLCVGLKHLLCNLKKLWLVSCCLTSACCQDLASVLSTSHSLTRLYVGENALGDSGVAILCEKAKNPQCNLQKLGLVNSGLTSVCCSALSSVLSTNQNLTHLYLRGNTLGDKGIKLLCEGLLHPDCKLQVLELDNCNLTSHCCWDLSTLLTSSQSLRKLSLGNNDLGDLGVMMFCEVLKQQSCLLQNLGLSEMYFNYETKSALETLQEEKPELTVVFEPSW

IC50 [µM] | SMILES
≤ 5 | COc1cc(-c2cc(F)cc(C(C)C)c2CC(=O)NS(=O)(=O)c2ccc(C#N)cc2C)ccn1 [Example 37, N-((4-Cyano-2-methylphenyl)sulfonyl)-2-(4-fluoro-2-isopropyl-6-(2-methoxypyridin-4-yl)phenyl)acetamide]
≤ 1 | COc1cc(-c2cc(F)cc(C(C)C)c2CC(=O)NS(=O)(=O)c2cccc(CO)c2)ccn1 [Example 38, 2-(4-Fluoro-2-isopropyl-6-(2-methoxypyridin-4-yl)phenyl)-N-((3-(hydroxymethyl)phenyl)sulfonyl)acetamide, potassium salt]
≤ 10 | COC(=O)c1ccc(S(=O)(=O)NC(=O)Cc2c(-c3ccnc(OC)c3)cc(F)cc2C(C)C)c(C)c1 [Example 39, Methyl 4-(N-(2-(4-fluoro-2-isopropyl-6-(2-methoxypyridin-4-yl)phenyl)acetyl)sulfamoyl)-3-methylbenzoate]
≤ 0.5 | COc1cc(-c2cc(F)cc(C(C)C)c2CC(=O)NS(=O)(=O)c2cc(C(C)(C)O)co2)ccn1 [Example 40, 2-(4-Fluoro-2-isopropyl-6-(2-methoxypyridin-4-yl)phenyl)-N-((4-(2-hydroxypropan-2-yl)furan-2-yl)sulfonyl)acetamide]
≤ 10 | COc1cc(-c2cc(F)cc(C(C)C)c2CC(=O)NS(=O)(=O)C(C)c2ccccc2)ccn1 (stereo not shown) [Example 41, 2-(4-Fluoro-2-isopropyl-6-(2-methoxypyridin-4-yl)phenyl)-N-((1-phenylethyl)sulfonyl)acetamide]
≤ 10 | COc1cc(-c2cc(F)cc(C(C)C)c2CC(=O)NS(=O)(=O)c2cnn(C)c2)ccn1 [Example 42, 2-(4-Fluoro-2-isopropyl-6-(2-methoxypyridin-4-yl)phenyl)-N-((1-methyl-1H-pyrazol-4-yl)sulfonyl)acetamide]
≤ 5 | COc1cc(-c2cc(F)cc(C(C)C)c2CC(=O)NS(=O)(=O)c2ccc(C(C)=O)cc2)ccn1 [Example 43, N-((4-Acetylphenyl)sulfonyl)-2-(4-fluoro-2-isopropyl-6-(2-methoxypyridin-4-yl)phenyl)acetamide]
≤ 5 | COc1cc(-c2ccc3c(c2CC(=O)NS(=O)(=O)N(C)C2CCN(C)C2)CCC3)ccn1 (stereo not shown) [Example 55, 2-(5-(2-Methoxypyridin-4-yl)-2,3-dihydro-H-inden-4-yl)-N—(N-methyl-N-(1-methylpyrrolidin-3-yl)sulfamoyl)acetamide, potassium salt]
≤ 10 | CCN(CC)CCCS(=O)(=O)NC(=O)Cc1c(-c2ccnc(OC)c2)ccc2c1CCC2 [Example 56, N-((3-(Diethylamino)propyl)sulfonyl)-2-(5-(2-methoxypyridin-4-yl)-2,3-dihydro-1H-inden-4-yl)acetamide]
≤ 5 | CCN(CC)CCCS(=O)(=O)NC(=O)Cc1c(-c2ccnc(OC)c2)cc(F)cc1C(C)C [Example 57, N-((3-(Diethylamino)propyl)sulfonyl)-2-(4-fluoro-2-isopropyl-6-(2-methoxypyridin-4-yl)phenyl)acetamide, potassium salt]
≤ 1 | COc1cc(-c2cc(F)cc(C(C)C)c2CC(=O)NS(=O)(=O)c2cc(C(=O)N(C)C)n(C)n2)ccn1 [Example 58, 3-(N-(2-(4-Fluoro-2-isopropyl-6-(2-methoxypyridin-4-yl)phenyl)acetyl)sulfamoyl)-N,N,1-trimethyl-1H-pyrazole-5-carboxamide]
≤ 5 | CC(C)c1cc(F)cc(-c2cccnc2)c1CC(=O)NS(=O)(=O)c1cc(C(=O)N(C)C)n(C)n1 [Example 59, 3-(N-(2-(4-Fluoro-2-isopropyl-6-(pyridin-3-yl)phenyl)acetyl)sulfamoyl)-N,N,1-trimethyl-1H-pyrazole-5-carboxamide]
≤ 5 | CC(C)c1cc(F)cc(-c2ccncc2)c1CC(=O)NS(=O)(=O)c1cc(C(=O)N(C)C)n(C)n1 [Example 60, 3-(N-(2-(4-Fluoro-2-isopropyl-6-(pyridin-4-yl)phenyl)acetyl)sulfamoyl)-N,N,1-trimethyl-1H-pyrazole-5-carboxamide]
≤ 5 | CC(C)c1cc(F)cc(-c2ccncc2)c1CC(=O)NS(=O)(=O)c1ccn(C(C)(C)CN(C)C)n1 [Example 61, N-((1-(1-(Dimethylamino)-2-methylpropan-2-yl)-1H-pyrazol-3-yl)sulfonyl)-2-(4-fluoro-2-isopropyl-6-(pyridin-4-yl)phenyl)acetamide]
≤ 5 | COc1cc(-c2cc(F)cc(C(C)C)c2CC(=O)NS(=O)(=O)c2cc(CN(C)C)n(C)n2)ccn1 [Example 62, N-((5-((Dimethylamino)methyl)-1-methyl-1H-pyrazol-3-yl)sulfonyl)-2-(4-fluoro-2-isopropyl-6-(2-methoxypyridin-4-yl)phenyl) acetamide]
≤ 10 | COc1cc(-c2ccc3c(c2CC(=O)NS(=O)(=O)c2cc(C(=O)N(C)C)n(C)n2)CCC3)ccn1 [Example 64, 3-(N-(2-(5-(2-Methoxypyridin-4-yl)-2,3-dihydro-1H-inden-4-yl)acetyl)sulfamoyl)-N,N,1-trimethyl-1H-pyrazole-5-carboxamide]
≤ 5 | CN(C)C(=O)c1cc(S(=O)(=O)NC(=O)Cc2c(-c3ccnc(C#N)c3)ccc3c2CCC3)nn1C [Example 65, 3-(N-(2-(5-(2-Cyanopyridin-4-yl)-2,3-dihydro-1H-inden-4-yl)acetyl)sulfamoyl)-N,N,1-trimethyl-1H-pyrazole-5-carboxamide]
≤ 5 | CC(C)c1cc(F)cc(-c2ccncc2)c1CC(=O)NS(=O)(=O)c1cc(CN(C)C)n(C)n1 [Example 73, N-((5-((Dimethylamino)methyl)-1-methyl-H-pyrazol-3-yl)sulfonyl)-2-(4-fluoro-2-isopropyl-6-(pyridin-4-yl)phenyl)acetamide]
≤ 10 | COc1cc(-c2cc(F)cc(C(C)C)c2CC(=O)NS(=O)(=O)C[C@]23CCC(CC2=O)C3(C)C)ccn1 [Example 75]
≤ 5 | COc1cc(-c2cc(F)cc(C(C)C)c2CC(=O)NS(=O)(=O)N(C)C2CCN(C)C2)ccn1 (stereo not shown) [Example 76, 2-(4-Fluoro-2-isopropyl-6-(2-methoxypyridin-4-yl)phenyl)-N—(N-methyl-N-(1-methylpyrrolidin-3-yl)sulfamoyl)acetamide]
≤ 5 | COc1cc(-c2cc(F)cc(C(C)C)c2CC(=O)NS(=O)(=O)C[C@@]23CC[C@@H](C[C@H]2O)C3(C)C)ccn1 [Example 77, 2-(4-Fluoro-2-isopropyl-6-(2-methoxypyridin-4-yl)phenyl)-N-((((1R,2R,4S)-2-hydroxy-7,7-dimethylbicyclo[2.2.1]heptan-1-yl)methyl)sulfonyl)acetamide]
≤ 10 | COc1cc(-c2cc(F)cc(C(C)C)c2CC(=O)NS(=O)(=O)CCCC(C)(C)O)ccn1 [Example 78, 2-(4-Fluoro-2-isopropyl-6-(2-methoxypyridin-4-yl)phenyl)-N-((4-hydroxy-4-methylpentyl)sulfonyl)acetamide]
≤ 1 | COc1cc(-c2cc(F)cc(C(C)C)c2CC(=O)NS(=O)(=O)c2ccc(F)c(C(C)(C)O)c2)ccn1 [Example 79, 2-(4-Fluoro-2-isopropyl-6-(2-methoxypyridin-4-yl)phenyl)-N-((4-fluoro-3-(2-hydroxypropan-2-yl)phenyl)sulfonyl)acetamide]
≤ 5 | COc1cc(-c2cc(F)cc(C(C)C)c2CC(=O)NS(=O)(=O)c2ccc(C(C)(C)O)cc2)ccn1 [Example 80, 2-(4-Fluoro-2-isopropyl-6-(2-methoxypyridin-4-yl)phenyl)-N-((4-(2-hydroxypropan-2-yl)phenyl)sulfonyl)acetamide]
≤ 5 | COc1cc(-c2cc(F)cc(C(C)C)c2CC(=O)NS(=O)(=O)c2cccc(C(C)(C)C#N)c2)ccn1 [Example 81, N-((3-(2-Cyanopropan-2-yl)phenyl)sulfonyl)-2-(4-fluoro-2-isopropyl-6-(2-methoxypyridin-4-yl)phenyl)acetamide]
≤ 5 | Cc1cc(C(C)(C)O)ccc1S(=O)(=O)NC(=O)Cc1c(-c2cccnc2)cc(F)cc1C(C)C [Example 82, 2-(4-Fluoro-2-isopropyl-6-(pyridin-3-yl)phenyl)-N-((4-(2-hydroxypropan-2-yl)-2-methylphenyl)sulfonyl)acetamide]
≤ 5 | COc1cc(-c2cc(F)cc(C(C)C)c2CC(=O)NS(=O)(=O)c2ccc(C(C)(C)N)c(F)c2)ccn1 [Example 83, N-((4-(2-Aminopropan-2-yl)-3-fluorophenyl)sulfonyl)-2-(4-fluoro-2-isopropyl-6-(2-methoxypyridin-4-yl)phenyl)acetamide]
≤ 1 | COc1cc(-c2cc(F)cc(C(C)C)c2CC(=O)NS(=O)(=O)c2ccc(C(C)(C)O)c(F)c2)ccn1 [Example 84, 2-(4-Fluoro-2-isopropyl-6-(2-methoxypyridin-4-yl)phenyl)-N-((3-fluoro-4-(2-hydroxypropan-2-yl)phenyl)sulfonyl)acetamide]
